Where two headings read alike, the source gives them in different places.
Columns and labels:
[1] = target: T1, OATP1B3 (Homo sapiens, UniProt Q9NPD5)
[2] = tested on: primary rat hepatocytes
[3] = target: T2, OATP1B1 (Homo sapiens, UniProt Q9Y6L6)
T2 sequence (Q9Y6L6 1-691): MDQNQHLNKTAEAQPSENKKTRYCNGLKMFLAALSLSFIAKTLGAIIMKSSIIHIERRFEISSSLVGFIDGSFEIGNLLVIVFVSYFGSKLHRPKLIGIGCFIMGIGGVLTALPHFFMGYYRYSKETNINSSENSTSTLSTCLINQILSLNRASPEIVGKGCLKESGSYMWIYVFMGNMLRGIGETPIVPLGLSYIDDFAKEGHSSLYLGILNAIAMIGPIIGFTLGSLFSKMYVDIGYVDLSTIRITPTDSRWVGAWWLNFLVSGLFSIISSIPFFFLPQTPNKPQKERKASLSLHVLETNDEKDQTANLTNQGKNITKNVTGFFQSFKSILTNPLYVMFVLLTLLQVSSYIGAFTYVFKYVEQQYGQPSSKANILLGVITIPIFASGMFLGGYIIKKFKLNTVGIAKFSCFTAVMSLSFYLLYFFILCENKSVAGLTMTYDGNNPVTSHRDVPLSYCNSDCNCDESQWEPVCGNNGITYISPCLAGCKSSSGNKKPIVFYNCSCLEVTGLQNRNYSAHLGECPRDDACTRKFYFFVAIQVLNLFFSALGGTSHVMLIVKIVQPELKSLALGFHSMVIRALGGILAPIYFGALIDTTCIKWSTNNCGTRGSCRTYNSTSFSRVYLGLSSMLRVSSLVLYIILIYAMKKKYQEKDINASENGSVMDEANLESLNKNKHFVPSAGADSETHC

[4] = tested on: primary rat hepatocytes; remark: listed apart in the source
[5] = tested on: primary rat hepatocytes; remark: listed apart in the source
[6] = target: T2, OATP1B1; assay: cell-based
[7] = target: T1, OATP1B3; assay: cell-based

T1 sequence (Q9NPD5 whole entry): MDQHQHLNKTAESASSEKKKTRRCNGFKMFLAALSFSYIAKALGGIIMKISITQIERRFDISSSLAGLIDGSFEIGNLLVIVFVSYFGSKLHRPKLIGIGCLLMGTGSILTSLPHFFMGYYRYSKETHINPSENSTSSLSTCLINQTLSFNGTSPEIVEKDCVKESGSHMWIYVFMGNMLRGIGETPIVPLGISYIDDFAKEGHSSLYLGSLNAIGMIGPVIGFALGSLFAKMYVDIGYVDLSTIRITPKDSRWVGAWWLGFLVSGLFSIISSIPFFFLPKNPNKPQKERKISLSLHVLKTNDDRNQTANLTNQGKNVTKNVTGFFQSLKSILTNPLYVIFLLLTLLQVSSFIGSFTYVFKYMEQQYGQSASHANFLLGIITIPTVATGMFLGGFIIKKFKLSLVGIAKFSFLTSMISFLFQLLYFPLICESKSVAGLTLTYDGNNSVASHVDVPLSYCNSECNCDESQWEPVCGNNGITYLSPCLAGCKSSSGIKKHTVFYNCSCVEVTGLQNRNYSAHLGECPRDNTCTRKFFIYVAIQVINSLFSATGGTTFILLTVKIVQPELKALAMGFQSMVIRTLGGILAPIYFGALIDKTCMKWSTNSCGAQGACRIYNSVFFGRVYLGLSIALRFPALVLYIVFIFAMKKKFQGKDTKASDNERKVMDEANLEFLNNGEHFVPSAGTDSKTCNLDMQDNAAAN

Nc1ncnc2c1nc(Br)n2C1OC2COP(O)(=S)OC2C1O (single isomer, unassigned) [Rp-8-Br-cAMPS, 8-Bromoadenosine-3′, 5′-cyclic monophosphorothioate, Rp-isomer]
IC50 [1]: > 300 µM | Effect on Nod-induced hepatocyte apoptosis (Fig. 1F) ([2]; 300 µM, 150 nM Nod): inhibited apoptotic morphology | IC50 [3]: > 300 µM

COC1C2OP(O)(=S)OCC2OC1n1c(Sc2ccc(Cl)cc2)nc2c(N)ncnc21 (single isomer, unassigned) [Rp-8-pCPT-2′-O-Me-cAMPS, 8-(4-Chlorophenylthio)-2′-O-methyladenosine-3′, 5′-cyclic monophosphorothioate, Rp-isomer]
IC50 [1]: > 300 µM | IC50 [3]: > 300 µM

CO[C@H]1C2OP(O)(=S)OC[C@H]2O[C@H]1n1c(Sc2ccc(Cl)cc2)nc2c(N)ncnc21 (single isomer, unassigned) [Sp-8-pCPT-2′-O-Me-cAMPS, 8-(4-Chlorophenylthio)-2′-O-methyladenosine-3′, 5′-cyclic monophosphorothioate, Sp- isomer]
IC50 [1]: 8.7 µM | Ki [1]: 2.33 µM | Effect on Nod-induced hepatocyte apoptosis (Fig. 2A) [2]: clear inhibition | Effect on [3H]-Nod accumulation in hepatocytes [4]: almost completely inhibited | Effect on [14C]-glycocholic acid accumulation in hepatocytes ([5]; 50 µM): almost completely inhibited | IC50 [3]: 19.9 µM | Ki [3]: 6.63 µM

CO[C@H]1C2OP(=O)(O)OC[C@H]2O[C@H]1n1c(Br)nc2c(N)ncnc21 (some centres unmarked) [8-Br-2′-O-Me-cAMP, 8-Bromo-2′-O-methyladenosine-3′, 5′-cyclic monophosphate]
Effect on Nod-induced apoptosis / Nod transport, OATP1B3-transfected HEK293T cells [1]: some inhibition | IC50 [1]: > 300 µM | IC50 [3]: > 300 µM

CO[C@@H]1[C@H](O)[C@@H](CO)O[C@H]1n1c(Sc2ccc(Cl)cc2)nc2c(N)ncnc21 [8-pCPT-2′-O-Me-Ado, 8-(4-Chlorophenylthio)-2′-O-methyladenosine]
IC50 [6]: 31.3 µM | Ki [6]: 10.4 µM | IC50 [7]: 17.2 µM | Ki [7]: 4.61 µM

CO[C@@H]1[C@@H]2OP(=O)(OCOC(C)=O)OC[C@H]2O[C@H]1n1c(Sc2ccc(Cl)cc2)nc2c(N)ncnc21 (some centres unmarked) [8-pCPT-2′-O-Me-cAMP-AM, 8-(4-Chlorophenylthio)-2′-O-methyladenosine-3′, 5′-cyclic monophosphate, acetoxymethyl ester]
Effect on [3H]-Nod accumulation in hepatocytes [4]: did not affect | Effect on [14C]-glycocholic acid accumulation in hepatocytes ([5]; 50 µM): no inhibitory effect

O=P1(O)OCC2OC(n3c(Sc4ccc(Cl)cc4)nc4c(Nc5ccccc5)ncnc43)C(O)C2O1 (centres unmarked) [8-pCPT-6-Phe-cAMP, 8-(4-Chlorophenylthio)-N^6-phenyladenosine-3′, 5′-cyclic monophosphate]
Ki [1]: 0.804 µM | Ki [3]: 2.07 µM

O=P1(O)OC[C@H]2O[C@@H](n3c(Sc4ccc(Cl)cc4)nc4c(Nc5ccccc5)ncnc43)C[C@@H]2O1 [8-pCPT-6-Phe-dcAMP, 8-(4-Chlorophenylthio)-N^6-phenyladenosine-2′-deoxyadenosine 3′, 5′-cyclic monophosphate]
IC50 [1]: 8 µM | Ki [1]: 2.14 µM | IC50 [3]: 8.2 µM | Ki [3]: 2.73 µM

Nc1ncnc2c1ncn2[C@@H]1O[C@H](CO)[C@@H](O)[C@H]1O [Adenosine, adenosine]
IC50 [6]: > 300 µM | IC50 [7]: > 300 µM

CCCC(=O)Nc1ncnc2c1ncn2[C@@H]1O[C@@H]2COP(=O)(O)O[C@H]2[C@H]1O [Analog 6-MB-cAMP, N^6-Monobutyryladenosine-3′, 5′-cyclic monophosphate]
Effect on Nod-induced apoptosis / Nod transport, OATP1B3-transfected HEK293T cells [1]: no inhibitory effect | IC50 [1]: > 300 µM | Effect on Nod-induced hepatocyte apoptosis (Fig. 1A) [2]: no change in apoptosis induction | [14C]-GCA accumulation rel. to control ([5]; 50 µM): about 1.7 | [14C]-GCA accumulation rel. to control ([5]; 400 µM): 1.1 | Effect on Nod-induced apoptosis / Nod transport, OATP1B1-transfected HEK293T cells [3]: no inhibitory effect | IC50 [3]: > 300 µM

Nc1ncnc2c1nc(Br)n2[C@@H]1O[C@@H]2COP(=O)(O)O[C@H]2[C@H]1O [Analog 8-Br-cAMP, 8-Bromoadenosine-3′, 5′-cyclic monophosphate]
IC50 [1]: > 300 µM | IC50 [3]: > 300 µM

Nc1nc2c(nc(Br)n2[C@@H]2O[C@@H]3COP(=O)(O)O[C@H]3[C@H]2O)c(=O)[nH]1 [Analog 8-Br-cGMP, 8-Bromoguanosine-3′, 5′-cyclic monophosphate]
Effect on Nod-induced apoptosis / Nod transport, OATP1B3-transfected HEK293T cells [1]: inactive | IC50 [1]: > 300 µM | Effect on Nod-induced apoptosis / Nod transport, OATP1B1-transfected HEK293T cells [3]: inactive | IC50 [3]: > 300 µM

Nc1ncnc2c1nc(Sc1ccc(Cl)cc1)n2[C@@H]1O[C@H](CO)[C@@H](O)[C@H]1O [Analog 8-pCPT-Ado, 8-(4-Chlorophenylthio)adenosine]
IC50 [6]: > 300 µM | IC50 [7]: 150 µM | Ki [7]: 40.2 µM

Nc1ncnc2c1nc(Sc1ccc(Cl)cc1)n2[C@@H]1O[C@@H]2COP(=O)([O-])O[C@H]2[C@H]1O.[Na+] [Analog 8-pCPT-cAMP, 8-(4-Chlorophenylthio)adenosine-3′, 5′-cyclic monophosphate]
Effect on Nod-induced apoptosis / Nod transport, OATP1B3-transfected HEK293T cells [1]: inhibits | IC50 [1]: 49.6 µM | Ki [1]: 13.3 µM | Effect on Nod-induced hepatocyte apoptosis (Fig. 1A) [2]: inhibited completely apoptotic morphology | Effect on Nod-induced hepatocyte apoptosis (Fig. 2A) [2]: clear inhibition | [14C]-GCA accumulation compared to control [5]: 60% | Effect on Nod-induced apoptosis / Nod transport, OATP1B1-transfected HEK293T cells [3]: inhibits | IC50 [3]: 130 µM | Ki [3]: 43.3 µM

Nc1nc2c(nc(Sc3ccc(Cl)cc3)n2[C@@H]2O[C@@H]3COP(=O)(O)O[C@H]3[C@H]2O)c(=O)[nH]1 [Analog 8-pCPT-cGMP, 8-(4-Chlorophenylthio)guanosine-3′, 5′-cyclic monophosphate]
IC50 [1]: 88.8 µM | Ki [1]: 29.6 µM | IC50 [3]: 259 µM | Ki [3]: 86.3 µM

Nc1ncnc2c1nc(Sc1ccc(Cl)cc1)n2C1CC2OP(=O)(O)OCC2O1 (centres unmarked) [Analog 8-pCPT-dcAMP, 8-(4-Chlorophenylthio)adenosine-2′-deoxyadenosine-3′, 5′-cyclic monophosphate]
IC50 [1]: 55.7 µM | Ki [1]: 14.9 µM | Effect on Nod-induced hepatocyte apoptosis (Fig. 2A) [2]: blocked Nod-induced apoptosis | Effect on [14C]-glycocholic acid accumulation in hepatocytes [5]: inhibited uptake | IC50 [3]: 223 µM | Ki [3]: 74.7 µM

O=C1OC(c2ccc(O)c(S(=O)(=O)O)c2)(c2ccc(O)c(S(=O)(=O)O)c2)c2c(Br)c(Br)c(Br)c(Br)c21 [BSP, sulfobromophthalein]
Effect on [3H]-Nod accumulation in hepatocytes [4]: complete inhibition | Effect on [14C]-glycocholic acid accumulation in hepatocytes ([5]; 50 µM): complete inhibition

CCCC(=O)Nc1ncnc2c1ncn2[C@@H]1O[C@@H]2COP(=O)(O)O[C@H]2[C@H]1OC(=O)CCC [DB-cAMP, N^6, 2′-O-Dibutyryladenosine-3′, 5′-cyclic monophosphate]
IC50 [6]: > 300 µM | IC50 [7]: 119 µM | Effect on Nod-induced apoptosis / Nod transport, OATP1B1-transfected HEK293T cells ([3]; human): but not to OATP1B1 activity

CC(C)Cn1c(=O)n(C)c(=O)c2[nH]cnc21 [IBMX]
Effect on Nod-induced apoptosis, OATP1B3-transfected cells ([1]; 250 µM): did not affect | Effect on Nod-induced apoptosis, OATP1B1-transfected cells ([3]; 250 µM): did not affect

C/C=C1/C(=O)N[C@@H](C(=O)O)[C@H](C)C(=O)N[C@@H](CCCNC(=N)N)C(=O)N[C@@H](/C=C/C(C)=C/[C@H](C)[C@H](Cc2ccccc2)OC)[C@H](C)C(=O)N[C@@H](C(=O)O)CCC(=O)N1C [Nod, nodularin]
Km ([1]; read-out: Km for Nod, OATP1B3): 0.22 µM | Km ([3]; read-out: Km for Nod, OATP1B1): 0.05 µM

Nc1ncnc2c1ncn2C1OC2COP(=O)(O)OC2C1O (centres unmarked) [cAMP]
IC50 [6]: > 300 µM | Effect on Nod-induced apoptosis / Nod transport, OATP1B3-transfected HEK293T cells [1]: did not affect | IC50 [7]: > 300 µM | Effect on Nod-induced apoptosis / Nod transport, OATP1B1-transfected HEK293T cells [3]: did not affect

Nc1nc2c(ncn2[C@@H]2O[C@@H]3COP(=O)(O)O[C@H]3[C@H]2O)c(=O)[nH]1 [cGMP]
Effect on Nod-induced apoptosis / Nod transport, OATP1B3-transfected HEK293T cells [1]: did not affect | IC50 [1]: > 300 µM | Effect on Nod-induced apoptosis / Nod transport, OATP1B1-transfected HEK293T cells [3]: did not affect | IC50 [3]: > 300 µM

CO[C@H]1/C=C/O[C@@]2(C)Oc3c(C)c(O)c4c(O)c(cc(O)c4c3C2=O)NC(=O)/C(C)=C\C=C\[C@H](C)[C@H](O)[C@@H](C)[C@@H](O)[C@@H](C)[C@H](OC(C)=O)[C@@H]1C [rifamycin SV, Rifamycin SV]
Effect on Nod-induced apoptosis / Nod transport, OATP1B3-transfected HEK293T cells [1]: abolished | Effect on Nod-induced apoptosis / Nod transport, OATP1B1-transfected HEK293T cells [3]: abolished

— PMC3989234, “Introduction of Aromatic Ring-Containing Substituents in Cyclic Nucleotides Is Associated with Inhibition of Toxin Uptake by the Hepatocyte Transporters OATP 1B1 and 1B3” (PLoS ONE, 2014)
